This is an account of results in ChEMBL document CHEMBL4400517, “Marine natural products as potential anti-tubercular agents” (Eur J Med Chem, 2019).

≈ marks a conversion by molar mass, not a printed value.

Assay [1] concerns Mycobacterium tuberculosis. Description: Antimycobacterial activity against Mycobacterium tuberculosis assessed as diameter of inhibition zone at 40 ug/disc. The following applies: read-out: IZ. In kind it is functional.
For assay [2], the system named is Mycobacterium tuberculosis. The experiment in a line: Antimycobacterial activity against Mycobacterium tuberculosis H37Rv by Alamar Blue assay. In kind it is functional. (In general: The colour change of resazurin is a common sign of viable cells or microbes.)
Assay [3] concerns Mycobacterium tuberculosis. Description: Antimycobacterial activity against Mycobacterium tuberculosis H37Ra. Type of assay: functional.
For assay [4], the system named is Mycobacterium tuberculosis. Description: Antimycobacterial activity against Mycobacterium tuberculosis incubated for overnight by NCCLS broth dilution method. In kind it is functional. Background: Dilution methods test growth across graded concentrations, often in twofold steps.
The nature of assay [5]: Inhibition of Mycobacterium PknG.
The subject of assay [6] is Mycobacterium tuberculosis. The experiment in a line: Antimycobacterial activity against Mycobacterium tuberculosis H37Rv ATCC 27294 by Alamar Blue staining-based broth microdilution assay. Type of assay: functional.
For assay [7], the target named is T1, Phosphotyrosine protein phosphatase (Mycobacterium tuberculosis, UniProt A0A045ISB3).
T1 sequence (A0A045ISB3 whole entry): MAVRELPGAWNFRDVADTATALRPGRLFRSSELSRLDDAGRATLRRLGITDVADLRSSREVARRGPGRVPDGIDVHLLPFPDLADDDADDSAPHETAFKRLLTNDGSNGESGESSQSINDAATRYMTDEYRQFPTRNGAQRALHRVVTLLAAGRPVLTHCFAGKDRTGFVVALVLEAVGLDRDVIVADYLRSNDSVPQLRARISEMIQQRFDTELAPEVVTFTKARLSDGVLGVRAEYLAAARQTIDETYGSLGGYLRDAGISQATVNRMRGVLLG
Description: Inhibition of Mycobacterium tuberculosis Protein Tyrosine Phosphatase B.

The next assay has as its system Mycolicibacterium vaccae. The experiment in a line: Antimycobacterial activity against Mycobacterium vaccae assessed as diameter of inhibition zone at 50 ug/disc. In kind it is functional. The following applies: read-out: IZ.
Assay [8] relates to Mycobacterium tuberculosis. Description: Antimycobacterial activity against Mycobacterium tuberculosis H37Rv. In kind it is functional, organism-based.
The target in assay [9] is T2, Enoyl-[acyl-carrier-protein] reductase [NADH] (Mycobacterium tuberculosis) (UniProt P9WGR1).
T2 sequence (whole entry): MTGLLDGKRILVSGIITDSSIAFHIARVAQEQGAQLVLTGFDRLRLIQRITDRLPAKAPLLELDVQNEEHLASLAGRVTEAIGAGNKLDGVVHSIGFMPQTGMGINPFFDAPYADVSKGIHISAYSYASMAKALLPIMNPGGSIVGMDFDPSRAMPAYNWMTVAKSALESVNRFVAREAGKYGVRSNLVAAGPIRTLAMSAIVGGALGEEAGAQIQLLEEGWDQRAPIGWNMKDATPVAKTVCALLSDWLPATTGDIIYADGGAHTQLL
The experiment in a line: Inhibition of Mycobacterium tuberculosis InhA enzyme at 10 uM relative to control.

In assay [10] the test system is Mycobacterium tuberculosis. The experiment in a line: Antimycobacterial activity against Mycobacterium tuberculosis H37Rv assessed as inhibition of mycobacterial growth at 12 ug/ml relative to control. Type of assay: functional.
Assay [11] deals with Mycolicibacterium smegmatis. Description: Antimycobacterial activity against Mycobacterium smegmatis. Type of assay: functional.
Assay [12] relates to Mycolicibacterium smegmatis. Description: Antimycobacterial activity against Mycobacterium smegmatis MC2 155 by broth dilution method. Type of assay: functional.
The subject of another assay is Mycolicibacterium phlei. The experiment in a line: Antimycobacterial activity against Mycobacterium phlei assessed as diameter of inhibition zone at 20 ug/disc. The following applies: read-out: IZ. Type of assay: functional.
Assay [13] relates to Mycolicibacterium smegmatis. The experiment in a line: Antibiofilm activity against Mycobacterium smegmatis after 5 weeks. Type of assay: functional.
The test system of assay [14] is Mycobacterium tuberculosis. The experiment in a line: Antimycobacterial activity against Mycobacterium tuberculosis H37Rv by broth dilution method. In kind it is functional.
For assay [15], the system named is Mycobacterium tuberculosis. The experiment in a line: Antimycobacterial activity against Mycobacterium tuberculosis H37Rv assessed as inhibition of mycobacterial growth at 12.5 ug/ml relative to control. In kind it is functional.

Usually IC50 stands for the concentration that gives 50% inhibition. Lower therefore signals higher potency. By inhibition is commonly meant how much of the control response was suppressed.

Consider `COc1cc(OC)c2c(O)c3c(=O)cc(C)oc3c(-c3c4cc(O)cc(OC)c4c(O)c4c(=O)cc(C)oc34)c2c1`, for which, in assay [1], the zone of inhibition at 40 µg/disc worked out at 11 mm.

Regarding `C[C@@H]1C[C@H](C)C(=O)/C=C/[C@@H]2[C@@H](O)[C@H]3OC4=C(C(=O)O[C@@]42C[C@H]3C)C1=O` (stereo in doubt; (-)-145), the MIC in assay [2] (Mycobacterium tuberculosis, H37Rv, read-out: MIC) is 3.6 µM (≈ 1.25 µg/mL).

In assay [3], `C1=C\CCCC[C@@H]2CN3CCCC/C=C\CCCC[C@H]4C[C@H](CN(CCCCCC/1)C4)[C@H]2CC3` (relative stereo) showed an MIC of 2.14 µM (≈ 1 µg/mL).

For `CN1C(=O)[C@]23CC4=CC=C[C@H](O)[C@H]4N2C(=O)[C@@]1(CO)SS3` [GLIOTOXIN], in [4], the MIC is below 0.03 µM.

In assay [5], `CC[C@H](C)/C=C(C)/C=C/C1=CC2=C(Cl)C(=O)[C@](C)(OC(C)=O)C(=O)C2=CO1` [SCLEROTIORIN] yielded an IC50 of 76.5 µM.

`CCCCCCC[C@@H]1C[C@@H]2CCC3=C(C(=O)OC(C)CCCCCC[C@@H]4C[C@@H]5CC[C@@H]6C[C@H](C)NC(=N4)N65)C(C)N=C(N1)N32` (stereo partly drawn) had an MIC in assay [6] of 5.23 µM (≈ 3.18 µg/mL).

`CC(=O)c1cc(C)c(O)c(CC2=C(C)C(=O)C(O)=C(C)C2=O)c1O` displayed an IC50 in assay [7] of 1.37 µM.

As for `CC[C@H]1/C=C/[C@H](O)[C@H](C=C(C)C)OC(=O)/C(C)=C/CC(=O)Nc2cc(O)cc3c2O/C(=C\C(=O)CC1)C(C)=C3`, in the assay with Mycolicibacterium vaccae, the zone of inhibition at 50 µg/disc worked out at 12 mm.

`CCCCCCCc1cc(O)c(CCCCCC)c(=O)o1` [PSEUDOPYRONINES B] displayed an MIC in assay [8] of 2.65 to 5.31 µM (≈ 0.78 to 1.56 µg/mL). The compound further showed an inhibition in [9] of 12%.

On to `CCCCCC(=O)c1c(O)cc(CCCCC)oc1=O`, for which, in [8], the MIC stood at 2.79 µM (≈ 0.782 µg/mL). Also, in assay [9], the inhibition came to 68%.

`C/C=C1\NC(=O)[C@H](Cc2ccccc2)NC(=O)[C@@H](C(C)C)NC(=O)[C@@H]([C@@H](C)CC)NC(=O)[C@H](NC(=O)[C@H](NC(=O)[C@H](CCCN)NC(=O)[C@H]2CCCN2C(=O)[C@H](NC(=O)[C@@H](NC(=O)[C@@H](NC(=O)[C@H](NC(=O)CCCC(C)C)C(C)C)[C@@H](C)O)C(C)C)C(C)C)[C@@H](C)CC)[C@@H](C)OC(=O)[C@H](C(C)C)NC1=O`: the inhibition at 12 µg/mL in [10] came out at 67%.

Regarding `C1=C2CCCC/C=C\C=C\CCN3CC[C@@H]4[C@H](CCCCCC/C=C\C=C/CCN(C2)C[C@H]14)C3` (relative stereo) [HALICYCLAMINE A], the MIC in [11] and in assay [3] was 2.16 to 10.8 µM (≈ 1 to 5.01 µg/mL) in each case.

Regarding `C/C=C/C[C@@H]1NC(=O)[C@H](CC(C)C)N2C(=O)[C@H](C[C@H](C)[C@H]2O)N(C)C(=O)[C@H](C)NC(=O)[C@H](Cc2ccc(O)c([N+](=O)[O-])c2)NC(=O)[C@H](CC(C)C)N(C)C(=O)[C@H](Cc2cn(C(C)(C)[C@H]3CO3)c3ccccc23)NC1=O`, in [12], the MIC is 0.12 µM (≈ 0.125 µg/mL).

In the case of `CC(C)=CCOc1cc(O)c2c3c(c(O)cc(C)c13)OC2=O`, the zone of inhibition at 20 µg/disc in the assay on Mycolicibacterium phlei was determined as 22 mm.

For `CC(C)=C/C=C\[C@H](C)[C@H]1CC[C@]2(C)C[C@@H]3C(C)=CC(=O)[C@H]3/C(C=O)=C\C[C@@H]12`, the MIC in assay [13] worked out at 17 µM (≈ 6.23 µg/mL).

In the case of `Cc1cc(O)c2c3c(c(O)c4c(c13)O[C@@H](C)[C@]4(C)CO)C(=O)OC2=O`, the zone of inhibition at 20 µg/disc in the assay with Mycolicibacterium phlei is 20 mm.

In assay [13], `CC(C)=C/C=C\[C@H](C)[C@H]1CC[C@]2(C)C[C@H]3[C@@H](C(=O)C[C@@]3(C)O)/C(C=O)=C\C[C@@H]12` gave an MIC of 65 µM (≈ 25 µg/mL).

`CC(C)=CCOc1cc(O)c2c3c(c(O)cc(C)c13)C(=O)OC2=O`: the zone of inhibition at 20 µg/disc with Mycolicibacterium phlei came to 16 mm.

As for `CC[C@H]1/C=C/[C@@H]([C@@H](O)C=C(C)C)OC(=O)/C(C)=C\[C@@H]2C(=O)NC3=CC(=O)c4c(cc(C)c(O)c4C(=O)CC1)[C@@]32O`, the zone of inhibition at 50 µg/disc in the assay with Mycolicibacterium vaccae was 12 mm.

For the compound `C=CC(C)(C)n1cc(C[C@@H]2NC(=O)[C@H](C/C=C/C)NC(=O)[C@H](CC(C)C)N3C(=O)[C@H](C[C@H](C)[C@H]3O)N(C)C(=O)[C@H](C)NC(=O)[C@H](Cc3ccc(O)c([N+](=O)[O-])c3)NC(=O)[C@H](CC(C)C)N(C)C2=O)c2ccccc21`, in [14], the MIC stood at 0.0098 µM (≈ 0.0101 µg/mL).

In turn, `C/C=C/C[C@@H]1NC(=O)[C@H](CC(C)C)N2C(=O)[C@H](C[C@H](C)[C@@H]2O)N(C)C(=O)[C@H](C)NC(=O)[C@H](Cc2ccc(O)c([N+](=O)[O-])c2)NC(=O)[C@H](CC(C)C)N(C)C(=O)[C@H](Cc2cn(C(C)(C)[C@H]3CO3)c3ccccc23)NC1=O` displayed an MIC in assay [12] of 0.12 µM (≈ 0.125 µg/mL).

In assay [3], `C1=C\CCCCN2C[C@H]3CCCC/C=C\CCCCN4CC[C@@H]([C@H](CCCCCC/1)C4)[C@H](C3)C2` (relative stereo) showed an MIC of 5.34 µM (≈ 2.5 µg/mL).

Turning to `CC[C@H]1/C=C/[C@H](O)[C@H](C=C(C)C)OC(=O)[C@@]2(C)C=CC(=O)Nc3c2c(O)c2c(c(O)c(C)cc2c3O)C(=O)CC1`, the zone of inhibition at 50 µg/disc in the assay with Mycolicibacterium vaccae was found to be 11 mm.

Regarding `CC(=O)c1cc(C)c(O)c(Cc2c(O)cc(-c3ccc(O)c(O)c3)oc2=O)c1O`, the midpoint of inhibition in assay [7], the IC50, lay at 0.16 µM. This counts as sub-micromolar.

Compound `C[C@@H]1C[C@H](C)C(=O)/C=C/[C@@H]2[C@@H](O)[C@H]3OC4=C(C(=O)O[C@@]42C[C@H]3C)C1=O` (stereo in doubt; (+)-145) displayed an MIC in [2] of 7.2 µM (≈ 2.49 µg/mL).

As for `CC[C@H]1/C=C/[C@@H]([C@@H](O)C=C(C)C)OC(=O)/C(C)=C\CC(=O)Nc2cc(O)cc3c2O[C@@]2(CC1)CC(=O)[C@@H](C)[C@@H]3O2`, in the assay on Mycolicibacterium vaccae, the zone of inhibition at 50 µg/disc turned out to be 19 mm.

In the case of `CCC(C)C(=O)N[C@H](Cc1ccccc1)C(=O)NC1C(=O)N[C@H](CC(C)C)C(=O)N[C@H](Cc2ccccc2)C(=O)N[C@H](CC(C)C)C(=O)N[C@H]([C@H](C)O)C(=O)N[C@@H](CO)C(=O)O[C@@H]1C` (stereo partly drawn), the inhibition at 12 µg/mL in assay [10] came to 83%.

On to `CC(C)=C/C=C\[C@H](C)[C@H]1CC[C@]2(C)C[C@H]3[C@H](C(=O)C[C@@]3(C)O)/C(C=O)=C\C[C@@H]12`, for which, in assay [13], the MIC was determined as 4.1 µM (≈ 1.58 µg/mL).

Consider `CC(C)=C[C@@H]1C[C@H](C)[C@H]2CC[C@H](C)c3c2c1c(C)c1ncoc31` [PSEUDOPTEROXAZOLE], for which, in assay [15], the inhibition at 12.5 µg/mL was 97%.

`C=CC(C)(C)n1cc(C[C@@H]2NC(=O)[C@H](C/C=C/C)NC(=O)[C@H](CC(C)C)N3C(=O)[C@H](C[C@H](C)[C@@H]3O)N(C)C(=O)[C@H](C)NC(=O)[C@H](Cc3ccc(O)c([N+](=O)[O-])c3)NC(=O)[C@H](CC(C)C)N(C)C2=O)c2ccccc21` returned an MIC in [14] of 0.0098 µM (≈ 0.0101 µg/mL).
